Experimental data taken from the supplement of paper PMC11208160.

Assay: recombinant UMI read abundance after kanamycin selection (control-corrected) (log10(CPM+1)); higher = more efficient recombination; extreme values may be limits of the assay; sequences stand for … in AGTGCAGAGAAAATCGGCCAGTTTTCTCTGCCTGCAGTCCGCATGCCGTGGGACCCCTTGGGTTCTAACCTGTTGCCTAGATTTATGCAGCGGACTGCCTTTCTCCCAAAGTGATAAACCGG…AGGTTGGTTTCACT; site = the 11-nt donor
How it was run: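 Each donor and donor-binding-loop pair was tracked by a 12-nt UMI on a plasmid carrying a promoterless kanamycin gene. With a second plasmid supplying a fixed target and T7-inducible IS621 bridge recombinase, the pool was plated in Escherichia coli on IPTG (0.07 mM) plus kanamycin or unselected. Sequencing of recombinant UMIs across the donor–target junction gave counts expressed as log10(CPM+1) after replicate averaging and control-derived scaling.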
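Further: IS621 bridge recombinase in Escherichia coli cells against a fixed T5 target plasmid.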

Point of comparison: “CGATTTACATGGACCGGTTTTCCCGGTAATCCGTATTTGGC (site CGATTTACTGC)”, “recombinant UMI read abundance (log10)” value 0. Against it:
- CGATAATCATGGACCGGTTTTCCCGGTAATCCGTATTTGGT (site CGATAATCTAC) — higher, 2.74
- CGATAATCATGGACCGGTTTTCCCGGTAATCCGTATTTGGT (site CGATCATCTAG) — the same, 0
- CGATCATCATGGACCGGTTTTCCCGGTAATCCGTATTTGAC (site CGATCATCTAG) — the same, 0
- CGATCATCATGGACCGGTTTTCCCGGTAATCCGTATTTGAC (site CGATCATCTGT) — higher, 1.49
- CGATCATCATGGACCGGTTTTCCCGGTAATCCGTATTTGCA (site CGATCATCTAG) — the same, 0
- CGATCATCATGGACCGGTTTTCCCGGTAATCCGTATTTGCA (site CGATCATCTCG) — the same, 0
- CGATCATCATGGACCGGTTTTCCCGGTAATCCGTATTTGCA (site CGATCATCTGG) — the same, 0
- CGATCATCATGGACCGGTTTTCCCGGTAATCCGTATTTGCA (site CGATCATCTTG) — higher, 2.31
- CGATCATCATGGACCGGTTTTCCCGGTAATCCGTATTTGGG (site CGATCATCTAG) — the same, 0
- CGATCATCATGGACCGGTTTTCCCGGTAATCCGTATTTGGG (site CGATCATCTCC) — within 0.2 log units, 0.00655
- CGATCCCCATGGACCGGTTTTCCCGGTAATCCGTATTTGAA (site CGATCCCCTTT) — higher, 0.71
- CGATCGACATGGACCGGTTTTCCCGGTAATCCGTATTTGTG (site CGATCGACTAA) — higher, 0.242
- CGATCGACATGGACCGGTTTTCCCGGTAATCCGTATTTGTG (site CGATCGACTCA) — within 0.2 log units, 0.139
- CGATCGACATGGACCGGTTTTCCCGGTAATCCGTATTTGTG (site CGATCGACTGA) — the same, 0
- CGATCGACATGGACCGGTTTTCCCGGTAATCCGTATTTGTG (site CGATCGACTTA) — higher, 0.319
- CGATCGACATGGACCGGTTTTCCCGGTAATCCGTATTTGTT (site AGATCGACTAA) — within 0.2 log units, 0.0131
- CGATCGACATGGACCGGTTTTCCCGGTAATCCGTATTTGTT (site CAATCGACTAA) — within 0.2 log units, 0.0144
- CGATCGACATGGACCGGTTTTCCCGGTAATCCGTATTTGTT (site CCATCGACTAA) — within 0.2 log units, 0.0246
- CGATCGACATGGACCGGTTTTCCCGGTAATCCGTATTTGTT (site CGAACGACTAA) — within 0.2 log units, 0.0148
- CGATCGACATGGACCGGTTTTCCCGGTAATCCGTATTTGTT (site CGACCGACTAA) — higher, 0.509
- CGATCGACATGGACCGGTTTTCCCGGTAATCCGTATTTGTT (site CGAGCGACTAA) — within 0.2 log units, 0.0076
- CGATCGACATGGACCGGTTTTCCCGGTAATCCGTATTTGTT (site CGATAGACTAA) — within 0.2 log units, 0.00765
- CGATCGACATGGACCGGTTTTCCCGGTAATCCGTATTTGTT (site CGATCAACTAA) — within 0.2 log units, 0.0776
- CGATCGACATGGACCGGTTTTCCCGGTAATCCGTATTTGTT (site CGATCCACTAA) — within 0.2 log units, 0.0134
- CGATCGACATGGACCGGTTTTCCCGGTAATCCGTATTTGTT (site CGATCGACTAA) — higher, 0.6
- CGATCGACATGGACCGGTTTTCCCGGTAATCCGTATTTGTT (site CGATCGACTAC) — within 0.2 log units, 0.0194
- CGATCGACATGGACCGGTTTTCCCGGTAATCCGTATTTGTT (site CGATCGACTAG) — higher, 1.09
- CGATCGACATGGACCGGTTTTCCCGGTAATCCGTATTTGTT (site CGATCGACTAT) — within 0.2 log units, 0.188
- CGATCGACATGGACCGGTTTTCCCGGTAATCCGTATTTGTT (site CGATCGACTCA) — within 0.2 log units, 0.0164
- CGATCGACATGGACCGGTTTTCCCGGTAATCCGTATTTGTT (site CGATCGACTGA) — higher, 0.668
- CGATCGACATGGACCGGTTTTCCCGGTAATCCGTATTTGTT (site CGATCGACTTA) — higher, 0.271
- CGATCGACATGGACCGGTTTTCCCGGTAATCCGTATTTGTT (site CGATCGCCTAA) — within 0.2 log units, 0.00955
- CGATCGACATGGACCGGTTTTCCCGGTAATCCGTATTTGTT (site CGATCGGCTAA) — within 0.2 log units, 0.00691
- CGATCGACATGGACCGGTTTTCCCGGTAATCCGTATTTGTT (site CGATCGTCTAA) — within 0.2 log units, 0.00706
- CGATCGACATGGACCGGTTTTCCCGGTAATCCGTATTTGTT (site CGATCTACTAA) — within 0.2 log units, 0.00746
- CGATCGACATGGACCGGTTTTCCCGGTAATCCGTATTTGTT (site CGATGGACTAA) — within 0.2 log units, 0.0255
- CGATCGACATGGACCGGTTTTCCCGGTAATCCGTATTTGTT (site CGATTGACTAA) — within 0.2 log units, 0.0149
- CGATCGACATGGACCGGTTTTCCCGGTAATCCGTATTTGTT (site CGCTCGACTAA) — within 0.2 log units, 0.0137
- CGATCGACATGGACCGGTTTTCCCGGTAATCCGTATTTGTT (site CGGTCGACTAA) — within 0.2 log units, 0.012
- CGATCGACATGGACCGGTTTTCCCGGTAATCCGTATTTGTT (site CGTTCGACTAA) — within 0.2 log units, 0.0124
- CGATCGACATGGACCGGTTTTCCCGGTAATCCGTATTTGTT (site CTATCGACTAA) — within 0.2 log units, 0.0176
- CGATCGACATGGACCGGTTTTCCCGGTAATCCGTATTTGTT (site GGATCGACTAA) — within 0.2 log units, 0.0103
- CGATCGACATGGACCGGTTTTCCCGGTAATCCGTATTTGTT (site TGATCGACTAA) — within 0.2 log units, 0.00749
- CGATCGCCATGGACCGGTTTTCCCGGTAATCCGTATTTGCT (site CGATCATCTAG) — the same, 0
- CGATCGCCATGGACCGGTTTTCCCGGTAATCCGTATTTGCT (site CGATCGCCTAG) — higher, 0.27
- CGATCGGCATGGACCGGTTTTCCCGGTAATCCGTATTTGTT (site CGATCGACTAA) — within 0.2 log units, 0.00492
- CGATCGGCATGGACCGGTTTTCCCGGTAATCCGTATTTGTT (site CGATCGCCTAA) — within 0.2 log units, 0.0111
- CGATCGGCATGGACCGGTTTTCCCGGTAATCCGTATTTGTT (site CGATCGGCTAA) — higher, 0.642
- CGATCGGCATGGACCGGTTTTCCCGGTAATCCGTATTTGTT (site CGATCGTCTAA) — higher, 0.324
- CGATCTTCATGGACCGGTTTTCCCGGTAATCCGTATTTGCA (site CGATCATCTAG) — the same, 0
- CGATCTTCATGGACCGGTTTTCCCGGTAATCCGTATTTGCA (site CGATCTTCTTG) — higher, 0.912
- CGATGACCATGGACCGGTTTTCCCGGTAATCCGTATTTGGG (site CGAAGACCTCC) — within 0.2 log units, 0.00605
- CGATGACCATGGACCGGTTTTCCCGGTAATCCGTATTTGGG (site CGACGACCTCC) — within 0.2 log units, 0.00326
- CGATGACCATGGACCGGTTTTCCCGGTAATCCGTATTTGGG (site CGAGGACCTCC) — within 0.2 log units, 0.0601
- CGATGACCATGGACCGGTTTTCCCGGTAATCCGTATTTGGG (site CGATGACCTCC) — within 0.2 log units, 0.0111
- CGATGATCATGGACCGGTTTTCCCGGTAATCCGTATTTGAT (site CGATCATCTAG) — the same, 0
- CGATGATCATGGACCGGTTTTCCCGGTAATCCGTATTTGAT (site CGATGATCTAT) — higher, 2.44
- CGATGCACATGGACCGGTTTTCCCGGTAATCCGTATTTGAT (site CGATGCACTAT) — higher, 2.34
- CGATTACCATGGACCGGTTTTCCCGGTAATCCGTATTTGAT (site CGATTACCTAT) — the same, 0
- CGATTGGCATGGACCGGTTTTCCCGGTAATCCGTATTTGCT (site CGATTGGCTAG) — higher, 0.768
- CGATTGGCATGGACCGGTTTTCCCGGTAATCCGTATTTGCT (site CGCTTGGCTAG) — the same, 0
- CGATTGGCATGGACCGGTTTTCCCGGTAATCCGTATTTGCT (site CGGTTGGCTAG) — the same, 0
- CGATTGGCATGGACCGGTTTTCCCGGTAATCCGTATTTGCT (site CGTTTGGCTAG) — the same, 0
- CGATTTCCATGGACCGGTTTTCCCGGTAATCCGTATTTGTT (site CGATTTCCTAA) — higher, 0.757
- CGCAACTCATGGACCGGTTTTCCCGGTAATCCGTATTTGAC (site CGCAACTCTGT) — higher, 2.04
- CGCAAGACATGGACCGGTTTTCCCGGTAATCCGTATTTGGT (site CGCAAGACTAC) — higher, 1.19
- CGCAATCCATGGACCGGTTTTCCCGGTAATCCGTATTTGAA (site AGCAATCCTTT) — within 0.2 log units, 0.0753
